This passage reports MIC results from patent publication US20240115512A1, “PROCESS FOR PREPARING NANOFORMULATION FOR DELIVERY OF BERBAMINE” (priority 2021, published 2024).

Converted amounts (≈) assume the structure as drawn.

Experiment in all cases: MIC by serial dilution method
What all share (type): cell-based

For assay [1], the system named is Staphylococcus aureus (ATCC 29213). The note with it: ATCC29213. The protocol:
(§1) Berbamine was tested for a panel of bacterial strains including Pseudomonas aeruginosa (ATCC 27853), Acinetobacter baumannii (ATCC 19606), Staphylococcus aureus (ATCC 29213) and clinical isolates of Klebsiella pneumoniae, Staphylococcus epidermidis, Staphylococcus hemolyticus and Burkholderia cepacia complex using serial dilution method. Ceftazidime was used as the standard antibiotic for validating the protocol.

Assay [2] concerns Staphylococcus epidermidis (clinical isolate). The protocol: as §1
In assay [3] the test system is Acinetobacter baumannii (ATCC 19606). The following applies: ATCC19606. The protocol: as §1
The test system of assay [4] is Staphylococcus hemolyticus (clinical isolate). The protocol:
as §1

The subject of assay [5] is Klebsiella pneumoniae (clinical isolate). The protocol:
as §1

Regarding `COc1cc2c3cc1Oc1c(OC)c(OC)cc4c1[C@@H](Cc1ccc(O)c(c1)Oc1ccc(cc1)C[C@@H]3N(C)CC2)N(C)CC4` [berbamine], the MIC (usually the lowest concentration that inhibits growth of the organism) in assay [1] is 256 µg/mL (≈ 421 µM); in assay [2], 128 µg/mL (≈ 210 µM); in assay [3], 256 µg/mL (≈ 421 µM); in assay [4], 128 µg/mL (≈ 210 µM); in assay [5] it was greater than 4100 µg/mL.
